Measured values: US20240269157A1, “COMPOSITIONS AND METHODS FOR OVERCOMING MICROENVIRONMENT-MEDIATED RESISTANCE VIA E-SELECTIN TARGETING” (GLYCOMIMETICS, INC., priority 2021, published 2024)

What was measured:
[1] = test system: PDX AML (Flt3-ITD and WT1 mutations, sorafenib-resistant); assay: PDX model (Flt3-ITD and WT1 mutations, sorafenib-resistant), CyTOF after 2 days; format: in vivo, mice
Experimental: To delineate the mechanism of E-selectin at the onset of drug-mediated changes in AML signaling signatures, another PDX model was employed (Flt3-ITD and WT1 mutations, sorafenib-resistant).
PDX mice with advanced AML (more than 20% human AML cells circulation in peripheral blood) were administered vehicle control, venetoclax (25 mg/kg)/HMA (5.5 mg/kg), Compound A (200 mg/kg), or a combination therapy for 2 days. After 2 days of bolus drug administration, mice were sacrificed and subjected to CyTOF analysis (FIGS. 9A-C). Single cell proteomics analysis by CyTOF determined that combinatorial treatment of Compound A with venetoclax/HMA diminished levels of Ki67, IDU, and pRb compared to vehicle control or venetoclax/HMA alone, resulting in decreased proliferation of AML blasts.

[2] = test system: patient-derived primary AML xenograft (JAK2 and c-Kit); assay: PDX model (mutations in JAK2 and c-Kit), LSC retention and CyTOF of BM cells; format: in vivo, mice
Description: Intra-vital imaging was employed to investigate the effects of Compound B on AML cell motility in the bone marrow of triple reporter mice (Blood: dextran-TRITC; Host T-cells: DsRed; Host myeloid CD11 cells: EYFP) injected with AML cells carrying a turquoise fluorescent protein reporter gene. […] Individual cells were dislodged from the niche and traveled long-distance (FIG. 17C). The combined inhibition of E-selectin and CXCR4 depleted bone marrow vascular niche areas of leukemia cells.
In order to better understand how the augmented AML mobilization improves the efficacy of AML therapy, BM cells from PDX mice treated for 2 weeks with Compound A, Compound B, venetoclax/HMA (Ven/HMA), and their combinations were analyzed by single-cell proteomics (CyTOF). […] However, pharmacological antagonists of E-selectin (Compound A) or E-selectin/CXCR4 (Compound B) protected endothelial cells from Ven/HMA-induced detrimental insults through upregulation of survival signaling cascades, including pAKT, pERK, pMAPK and […] eNOS expression in endothelial cells compared to Ven/HMA treatment alone.

KG1 cells = assay: Real time qPCR of mRNAs encoding glycosyltransferases in KG1 cells; format: cell-based, human; design: key to AVG ΔCt (Ct(GOI) − Ave Ct (HKG)) Test Sample: Ct of gene of interest minus average housekeeping-gene Ct; key to Fold Change Test Sample/Control Sample: ratio of 2^(−ΔCt) treated / 2^(−ΔCt) control; conditions: KG1, 100 nM 5-AZA, 96 hours
Experimental: To address the hypothesis that hypomethylation led to enhanced expression of glycosyltransferases, KG1 cells were cultured in the presence or absence of 100 nM 5-AZA for 96 hours followed by real time qPCR analysis of mRNAs encoding relevant glycosyltransferases. Fresh 5-AZA was added to the culture daily. Approximately 1×10^6 cells were pelleted by centrifugation at 250×g for 10 minutes then snap frozen on dry ice. Total RNA was extracted and purified using a QIAGEN RNeasy® Kit with an on-column DNase treatment step (QIAGEN Cat. No. 74104). The fold-change (2^(−Delta Ct)) is the normalized gene expression (2^(−Delta Ct)) in the 5-AZA treated sample divided the normalized gene expression (2^(−Delta Ct)) in the control sample.
In Table 1, fold-regulation represents fold-change results in a biologically meaningful way. Fold-change values greater than one indicate a positive- or an up-regulation, and the fold-regulation is equal to the fold-change. Fold-change values less than one indicate a negative or down-regulation, and the fold-regulation is the negative inverse of the fold-change. Additionally, p-values in Table 1 were calculated based on a Student's t-test of the replicate 2^(−Delta Ct) values for each gene in the control group and treatment groups.

FUT7 promoter = assay: Targeted Next-Gen bisulfite sequencing of the FUT7 promoter region in KG1 cells; format: cell-based, human; conditions: dose and time dependent
Experimental: To test whether the increased expression of FUT7 mRNA in KG1 cells treated with 5-AZA could be due to hypomethylation of the FUT7 promoter, targeted Next-Gen bisulfite sequencing of the FUT7 promoter region was performed. The methylation status of 101 CpG sites surrounding the transcription start site was determined. […] Cells were collected after 96 hours of treatment and cell pellets were prepared. Extracted DNA samples (500 ng) were bisulfite modified using the EZ-96 DNA Methylation-Direct Kit™ (ZymoResearch; Irvine, CA; Catalog No. D5023) per the manufacturer's protocol with minor modification. The bisulfite modified DNA samples were eluted using M-elution buffer in 46 μL. Following DNA extraction and bisulfite modification, 26 regions surrounding the transcription start site were evaluated by PCR/NGS to assess the methylation status of 101 CpG sites. All bisulfite modified DNA samples were amplified using separate multiplex or simplex PCRs. PCRs included 0.5 units of HotStarTaq (Qiagen; Hilden, Germany; Catalog No. 203205), 0.2 μM primers, and 3 μL of bisulfite-treated DNA in a 20 μL reaction.

[3] = in combination with Ven/HMA, 2 weeks, CyTOF of BM cells

SMILES: CCC1CC(C(=O)NCCNC(=O)CCOCCOCCOCCOCCOCCOCCOCCOCCOCCOCCOCCOC)C[C@@H](O[C@@H]2OC(CO)[C@H](O)C(O[C@@H](CC3CCCCC3)C(=O)O)C2NC(C)=O)[C@@H]1OC1O[C@@H](C)[C@H](O)C(O)[C@@H]1O (some centres unmarked) [Compound A]
- oncogenic signaling pathways MAPK, p-S6, and STAT3 ([1]; Compound A added to venetoclax/HMA): inhibited
- activation of PI3K and AKT in AML blasts and BM CD31+EC cells ([1]; mouse, in vivo): reduced
- eNOS phosphorylation in EC ([1]; mouse, in vivo): decreased
- levels of E-selectin ligand, mTOR, pFAK, pRb, cMyc [2, 3]: diminished
- p21 and cleaved caspase3 [2, 3]: increasing
- protection of endothelial cells from Ven/HMA-induced detrimental insults ([2]; upregulated pAKT, pERK, pMAPK, decreased eNOS vs Ven/HMA alone): protected

SMILES: Nc1ncn([C@@H]2O[C@H](CO)[C@@H](O)[C@H]2O)c(=O)n1 [5-azacitidine]
- 2^-ΔCt Test Sample (KG1 cells; ACTB): 5.5E−01
- AVG ΔCt (Ct(GOI) − Ave Ct (HKG)) Test Sample (KG1 cells; ACTB): 0.87
- Fold Change Test Sample/Control Sample (KG1 cells; ACTB): 0.58
- Fold Up- or Down-Regulation Test Sample/Control Sample (KG1 cells; ACTB): −1.73
- 2^-ΔCt Test Sample (KG1 cells; B3GNT5): 2.3E−03
- AVG ΔCt (Ct(GOI) − Ave Ct (HKG)) Test Sample (KG1 cells; B3GNT5): 8.74
- Fold Change Test Sample/Control Sample (KG1 cells; B3GNT5): 2.36
- Fold Up- or Down-Regulation Test Sample/Control Sample (KG1 cells; B3GNT5): 2.36
- 2^-ΔCt Test Sample (KG1 cells; CDKN1C): 6.1E−04
- AVG ΔCt (Ct(GOI) − Ave Ct (HKG)) Test Sample (KG1 cells; CDKN1C): 10.69
- Fold Change Test Sample/Control Sample (KG1 cells; CDKN1C): 1.24
- Fold Up- or Down-Regulation Test Sample/Control Sample (KG1 cells; CDKN1C): 1.24
- 2^-ΔCt Test Sample (KG1 cells; FUT3): 3.3E−05
- AVG ΔCt (Ct(GOI) − Ave Ct (HKG)) Test Sample (KG1 cells; FUT3): 14.89
- Fold Change Test Sample/Control Sample (KG1 cells; FUT3): 1.42
- Fold Up- or Down-Regulation Test Sample/Control Sample (KG1 cells; FUT3): 1.42
- 2^-ΔCt Test Sample (KG1 cells; FUT4): 3.6E−05
- AVG ΔCt (Ct(GOI) − Ave Ct (HKG)) Test Sample (KG1 cells; FUT4): 14.78
- Fold Change Test Sample/Control Sample (KG1 cells; FUT4): 0.98
- Fold Up- or Down-Regulation Test Sample/Control Sample (KG1 cells; FUT4): −1.02
- 2^-ΔCt Test Sample (KG1 cells; FUT5): 3.3E−05
- AVG ΔCt (Ct(GOI) − Ave Ct (HKG)) Test Sample (KG1 cells; FUT5): 14.89
- Fold Change Test Sample/Control Sample (KG1 cells; FUT5): 1.03
- Fold Up- or Down-Regulation Test Sample/Control Sample (KG1 cells; FUT5): 1.03
- 2^-ΔCt Test Sample (KG1 cells; FUT6): 9.3E−05
- AVG ΔCt (Ct(GOI) − Ave Ct (HKG)) Test Sample (KG1 cells; FUT6): 13.39
- Fold Change Test Sample/Control Sample (KG1 cells; FUT6): 3.27
- Fold Up- or Down-Regulation Test Sample/Control Sample (KG1 cells; FUT6): 3.27
- 2^-ΔCt Test Sample (KG1 cells; FUT7): 3.0E−04
- AVG ΔCt (Ct(GOI) − Ave Ct (HKG)) Test Sample (KG1 cells; FUT7): 11.71
- Fold Change Test Sample/Control Sample (KG1 cells; FUT7): 10.15
- Fold Up- or Down-Regulation Test Sample/Control Sample (KG1 cells; FUT7): 10.15
- 2^-ΔCt Test Sample (KG1 cells; FUT9): 4.4E−05
- AVG ΔCt (Ct(GOI) − Ave Ct (HKG)) Test Sample (KG1 cells; FUT9): 14.46
- Fold Change Test Sample/Control Sample (KG1 cells; FUT9): 1.92
- Fold Up- or Down-Regulation Test Sample/Control Sample (KG1 cells; FUT9): 1.92
- 2^-ΔCt Test Sample (KG1 cells; GAPDH): 1.8E+00
- AVG ΔCt (Ct(GOI) − Ave Ct (HKG)) Test Sample (KG1 cells; GAPDH): −0.87
- Fold Change Test Sample/Control Sample (KG1 cells; GAPDH): 1.73
- Fold Up- or Down-Regulation Test Sample/Control Sample (KG1 cells; GAPDH): 1.73
- 2^-ΔCt Test Sample (KG1 cells; ST3GAL3): 5.0E−04
- AVG ΔCt (Ct(GOI) − Ave Ct (HKG)) Test Sample (KG1 cells; ST3GAL3): 10.95
- Fold Change Test Sample/Control Sample (KG1 cells; ST3GAL3): 1.07
- Fold Up- or Down-Regulation Test Sample/Control Sample (KG1 cells; ST3GAL3): 1.07
- 2^-ΔCt Test Sample (KG1 cells; ST3GAL4): 6.9E−03
- AVG ΔCt (Ct(GOI) − Ave Ct (HKG)) Test Sample (KG1 cells; ST3GAL4): 7.17
- Fold Change Test Sample/Control Sample (KG1 cells; ST3GAL4): 2.78
- Fold Up- or Down-Regulation Test Sample/Control Sample (KG1 cells; ST3GAL4): 2.78
- 2^-ΔCt Test Sample (KG1 cells; ST3GAL6): 2.0E−02
- AVG ΔCt (Ct(GOI) − Ave Ct (HKG)) Test Sample (KG1 cells; ST3GAL6): 5.66
- Fold Change Test Sample/Control Sample (KG1 cells; ST3GAL6): 2.55
- Fold Up- or Down-Regulation Test Sample/Control Sample (KG1 cells; ST3GAL6): 2.55
- methylation of CpG sites of the FUT7 promoter region (FUT7 promoter): demethylation
